The record followed here is article PMC9604400, “Synthesis, Anticancer and Antitubercular Properties of New Chalcones and Their Nitrogen-Containing Five-Membered Heterocyclic Hybrids Bearing Sulfonamide Moiety” (International Journal of Molecular Sciences, 2022).

The subject of data set [1] is 60 human cancer cell lines. Nature of the data set: NCI-60 screen (SRB), whole panel. The class given is cell-based. As to conditions: single dose 10 μM; for inhibition at 10 µM: Homo sapiens, mean over 60 cell lines, over 100% = cell death, read-out: Mean growth inhibition (GI) percentage.
In a further data set the test system is M. tuberculosis H37Rv. Nature of the data set: Checkerboard synergism assay. The conditions noted are these: for MIC: Mycobacterium tuberculosis, H37RV, checkerboard, alone. The class given is cell-based, Mycobacterium tuberculosis.
[2] abbreviates: antibiotic in combination with 20a.
Setting [3] is: antibiotic in combination with 20f.

Marks after values point to notes of the source that are not given here.

Experimental for M. tuberculosis H37Rv: The synergism assays were carried out in 96-well plates with Middlebrook 7H9 medium supplemented with OADC.

What is called melting point is the temperature of the solid-liquid transition. Regarding `COc1cc(OC)c(S(=O)(=O)NNC(=O)c2ccncc2)cc1C(=O)/C=C/c1ccc(C)cc1` [Compound 20c, (E)-N’-Isonicotinoyl-2,4-dimethoxy-5-(3-(p-tolyl)acryloyl)benzenesulfonohydrazide], the melting point is 195 to 197 °C. For the same molecule, in data set [1], the inhibition at 10 µM turned out to be 26.9%.

Regarding `COc1ccc(C2=NN(C=O)C(c3ccc(Cl)cc3)C2)cc1S(=O)(=O)NNC(=O)c1ccncc1` (stereo not shown), the melting point is 156 to 158 °C.

As to `COc1ccc(/C=C/C(=O)c2cc(S(=O)(=O)N(CCCl)CCCl)c(OC)cc2OC)cc1` [Compound 18d, (E)-N,N-bis(2-Chloroethyl)-2,4-dimethoxy-5-(3-(4-methoxyphenyl)acryloyl)benzenesulfonamide], the melting point fell in the range of 168 to 171 °C.

`COc1cc(OC)c(S(=O)(=O)N(CCCl)CCCl)cc1C(=O)C=Cc1ccccc1` [Compound 18a, N,N-bis(2-chloroethyl)-5-cinnamoyl-2,4-dimethoxybenzenesulfonamide]: the melting point lay in the range of 184 to 186 °C.

As for `COc1cc(OC)c(S(=O)(=O)N(CCCl)CCCl)cc1C(=O)/C=C/c1ccc2c(c1)OCO2` [Compound 18f, (E)-5-(3-(Benzo[d][1,3]dioxol-5-yl)acryloyl)-N,N-bis(2-chloroethyl)-2,4-dimethoxybenzenesulfonamide], the melting point is 193 to 196 °C.

Consider `COc1ccc(C(C)=O)cc1S(=O)(=O)NNC(=O)c1ccncc1` [Compound 14a, 5-Acetyl-N’-isonicotinoyl-2-methoxybenzenesulfonohydrazide], for which, in data set [1], the inhibition at 10 µM amounted to 2.09% and the “antiproliferative activity (in words)” value is on record as “low antiproliferative activity”.

`COc1cc(OC)c(S(=O)(=O)N(CCCl)CCCl)cc1C(=O)/C=C/c1ccc(C)cc1` [Compound 18c, (E)-N,N-bis(2-Chloroethyl)-2,4-dimethoxy-5-(3-(p-tolyl)acryloyl)benzenesulfonamide] showed a melting point of 186 to 189 °C.

In turn, `COc1cc(OC)c(S(=O)(=O)NNC(=O)c2ccncc2)cc1C(=O)/C=C/c1ccc(Cl)cc1` [Compound 20b, (E)-5-(3-(4-Chlorophenyl)acryloyl)-N’-isonicotinoyl-2,4-dimethoxybenzenesulfonohydrazide] gave a melting point of 196 to 198 °C. The inhibition at 10 µM in data set [1] turned out to be 20%.

`COc1ccc(/C=C/C(=O)c2ccc(OC)c(S(=O)(=O)Nc3cccnc3)c2)cc1` [Compound 16d, (E)-2-Methoxy-5-(3-(4-methoxyphenyl)acryloyl)-N-(pyridin-3-yl)benzenesulfonamide]: the melting point was in the range of 228 to 230 °C. Further, in data set [1], the inhibition at 10 µM was 10.2%.

In turn, `COc1ccc(C(=O)/C=C/c2ccc(Cl)cc2)cc1S(=O)(=O)NNC(=O)c1ccncc1` [Compound 19b, (E)-5-(3-(4-Chlorophenyl)acryloyl)-N’-isonicotinoyl-2-methoxybenzenesulfonohydrazide] gave a melting point of 242 to 244 °C. In addition, in data set [1], the inhibition at 10 µM turned out to be 0.96%.

`COc1cc(OC)c(S(N)(=O)=O)cc1C1=NN(C=O)C(c2ccc(Cl)cc2)C1` (stereo not shown) registered a melting point of 269 to 271 °C.

`COc1cc(OC)c(S(=O)(=O)NNC(=O)c2ccncc2)cc1C1=NN(C(N)=S)C(c2ccc(Cl)cc2)C1` (stereo not shown) displayed a melting point of 180 to 182 °C.

As for `COc1ccc(/C=C/C(=O)c2cc(S(N)(=O)=O)c(OC)cc2OC)cc1` [Compound 17d, (E)-2,4-Dimethoxy-5-(3-(4-methoxyphenyl)acryloyl)benzenesulfonamide], the melting point lay within 215 to 218 °C. Also, the inhibition at 10 µM in data set [1] came to 30%.

Regarding `COc1ccc(C(=O)/C=C/c2cc(OC)c(OC)c(OC)c2)cc1S(=O)(=O)NNC(=O)c1ccncc1` [Compound 19e, (E)-N’-Isonicotinoyl-2-methoxy-5-(3-(3,4,5-trimethoxyphenyl)acryloyl)benzenesulfonohydrazide], the melting point fell in the range of 202 to 204 °C. The inhibition at 10 µM in data set [1] amounted to 7.7%.

As for `COc1ccc(C(=O)/C=C/c2ccc3c(c2)OCO3)cc1S(=O)(=O)NNC(=O)c1ccncc1` [Compound 19f, (E)-5-(3-(Benzo[d][1,3]dioxol-5-yl)acryloyl)-N’-isonicotinoyl-2-methoxybenzenesulfonohydrazide], the melting point lay in the range of 245 to 248 °C. Also, the inhibition at 10 µM in data set [1] came to 0.48%.

One may read the MIC as the least concentration at which growth counts as inhibited. As for `C[C@H]1COc2c(N3CCN(C)CC3)c(F)cc3c(=O)c(C(=O)O)cn1c23` [Levofloxacin, levofloxacin, reference compound], the MIC in the data set on M. tuberculosis H37Rv was determined as 0.5 µg/mL. The “FICI Index” value with M. tuberculosis H37Rv (setting [2]) worked out at 1.25; with M. tuberculosis H37Rv (setting [3]) it was 1.00. The entries for the “MIC Combination” value with M. tuberculosis H37Rv (setting [2]) and in the data set on M. tuberculosis H37Rv (setting [3]) were 0.5 µg/mL and 0.25 µg/mL, respectively.

As to `COc1ccc(C2=NN(C=O)C(c3ccc(Cl)cc3)C2)cc1S(=O)(=O)Nc1cccnc1` (stereo not shown), the melting point lay within 241 to 243 °C.

For the molecule `COc1cc(OC)c(S(=O)(=O)N(CCCl)CCCl)cc1C(C)=O` [Compound 12, 5-Acetyl-N,N-bis(2-chloroethyl)-2,4-dimethoxybenzenesulfonamide], in data set [1], the “antiproliferative activity (in words)” value is “low antiproliferative activity”.

With `NCC[C@H](O)C(=O)N[C@@H]1C[C@H](N)[C@@H](O[C@H]2O[C@H](CN)[C@@H](O)[C@H](O)[C@H]2O)[C@H](O)[C@H]1O[C@H]1O[C@H](CO)[C@@H](O)[C@H](N)[C@H]1O` [AMK, amikacin, reference compound], the MIC in the data set with M. tuberculosis H37Rv turned out to be 1.5 µg/mL. In addition, in the data set with M. tuberculosis H37Rv (setting [2]), the “FICI Index” value is 2.00 and the “MIC Combination” value came out at 1.5 µg/mL. In the data set on M. tuberculosis H37Rv (setting [3]), the “FICI Index” value came out at 2.00 and the “MIC Combination” value was 1.5 µg/mL.

Molecule `COc1cc(OC)c(S(N)(=O)=O)cc1C(=O)/C=C/c1cc(OC)c(OC)c(OC)c1` [Compound 17e, (E)-2,4-Dimethoxy-5-(3-(3,4,5-trimethoxyphenyl)acryloyl)benzenesulfonamide] returned a melting point of 253 to 256 °C. Moreover, in data set [1], the inhibition at 10 µM was determined as 24.7%.

The molecule `COc1cc(OC)c(S(=O)(=O)N(CCCl)CCCl)cc1C(=O)/C=C/c1ccc(Cl)cc1` [Compound 18b, (E)-N,N-bis(2-Chloroethyl)-5-(3-(4-chlorophenyl)acryloyl)-2,4-dimethoxybenzenesulfonamide] registered a melting point of 186 to 187 °C.

`COc1ccc(C(=O)/C=C/c2cc(OC)c(OC)c(OC)c2)cc1S(=O)(=O)Nc1cccnc1` [Compound 16e, (E)-2-Methoxy-N-(pyridin-3-yl)-5-(3-(3,4,5-trimethoxyphenyl)acryloyl)benzenesulfonamide] returned a melting point of 239 to 241 °C. Moreover, the inhibition at 10 µM in data set [1] turned out to be 7.7%.

Turning to `COc1ccc(C(=O)/C=C/c2ccc(Cl)cc2)cc1S(=O)(=O)Nc1cccnc1` [Compound 16b, (E)-5-(3-(4-Chlorophenyl)acryloyl)-2-methoxy-N-(pyridin-3-yl)benzenesulfonamide], the melting point was 256 to 258 °C. In addition, the inhibition at 10 µM in data set [1] stood at 17%.

Turning to `COc1ccc(C(=O)/C=C/c2ccc(C)cc2)cc1S(=O)(=O)NNC(=O)c1ccncc1`, the melting point was 250 to 252 °C.

Regarding `COc1ccc(C(C)=O)cc1S(=O)(=O)Nc1cccnc1` [Compound 10, 5-Acetyl-2-methoxy-N-(pyridin-3-yl)benzenesulfonamide], in data set [1], the inhibition at 10 µM is 3.21% and the “antiproliferative activity (in words)” value was “low antiproliferative activity”.

Turning to `COc1ccc(C2=NN(C(N)=S)C(c3ccc(Cl)cc3)C2)cc1S(N)(=O)=O` (stereo not shown) [Compound 27a, 5-(4-Chlorophenyl)-3-(4-methoxy-3-sulfamoylphenyl)-4,5-dihydro-1H-pyrazole-1-carbothioamide], the melting point was 206 to 208 °C. Also, the inhibition at 10 µM in data set [1] was -0.54%.

Take `COc1ccc(C2=NN(C(C)=O)C(c3ccc(Cl)cc3)C2)cc1S(N)(=O)=O` (stereo not shown): the melting point was in the range of 229 to 232 °C.

In turn, `COc1cc(OC)c(S(=O)(=O)N(CCCl)CCCl)cc1C1=NN(C(N)=S)C(c2ccc(Cl)cc2)C1` (stereo not shown) [Compound 27e, 3-(5-(N,N-bis(2-Chloroethyl)sulfamoyl)-2,4-dimethoxyphenyl)-5-(4-chlorophenyl)-4,5-dihydro-1H-pyrazole-1-carbothioamide] gave a melting point of 196 to 198 °C.

`COc1cc(OC)c(S(=O)(=O)NNC(=O)c2ccncc2)cc1C1=NN(C=O)C(c2ccc(Cl)cc2)C1` (stereo not shown) showed a melting point of 166 to 168 °C.

`COc1cc(OC)c(S(N)(=O)=O)cc1C(C)=O` [Compound 8b, 5-Acetyl-2,4-dimethoxybenzenesulfonamide]: the “antiproliferative activity (in words)” value in data set [1] is “low antiproliferative activity”.

Turning to `COc1cc(OC)c(S(=O)(=O)NNC(=O)c2ccncc2)cc1C(C)=O` [Compound 14b, 5-Acetyl-N’-isonicotinoyl-2,4-dimethoxybenzenesulfonohydrazide], the “antiproliferative activity (in words)” value in data set [1] is “low antiproliferative activity”.

`COc1ccc(C2=NN(C(C)=O)C(c3ccc(Cl)cc3)C2)cc1S(=O)(=O)NNC(=O)c1ccncc1` (stereo not shown) came in with a melting point of 146 to 148 °C.

Turning to `COc1cc(OC)c(S(=O)(=O)N(CCCl)CCCl)cc1C1=NN(C=O)C(c2ccc(Cl)cc2)C1` (stereo not shown) [Compound 22d, N,N-bis(2-Chloroethyl)-5-(5-(4-chlorophenyl)-1-formyl-4,5-dihydro-1H-pyrazol-3-yl)-2,4-dimethoxybenzenesulfonamide], the melting point was in the range of 222 to 224 °C.

`CO[C@H]1/C=C/O[C@@]2(C)Oc3c(C)c(O)c4c(O)c(c(/C=N/N5CCN(C)CC5)c(O)c4c3C2=O)NC(=O)/C(C)=C\C=C\[C@H](C)[C@H](O)[C@@H](C)[C@@H](O)[C@@H](C)[C@H](OC(C)=O)[C@@H]1C` [RIF, rifampicin, reference compound]: the “MIC Combination” value in the data set on M. tuberculosis H37Rv (setting [2]) came to 0.048 µg/mL. Besides, in the data set on M. tuberculosis H37Rv (setting [3]), the “FICI Index” value is 0.37 * and the “MIC Combination” value turned out to be 0.048 µg/mL.

`COc1ccc(C2=NN(C(N)=S)C(c3ccc(Cl)cc3)C2)cc1S(=O)(=O)Nc1cccnc1` (stereo not shown) had a melting point of 236 to 238 °C.
